Numbered stars: 1 amine (or outer) side, 2 acyl side, 3 side chain; on linkers, the order of the positions; unused ones are H or OH. Bridge positions count the residues as written; N and C are the ends. Square brackets hold non-standard residues; d marks the D form. Peptide text beside a SMILES is read from it. * marks the point of attachment. ξ: configuration not given here. Asp(3S-OH) = N[C@H](C(=O)O)[C@H](O)C(=O)O; Thr(4-Cl) = N[C@H](C(=O)O)[C@H](O)CCl; ξAsp(3ξ-OH) = NC(C(=O)O)C(O)C(=O)O; X3 = O=C(C(N[*:1])C(O)CCl)[*:2]; X1 = CCCCCCCCC[C@@H](O)CC(=O)*; X2 = CCCCCCCCCCCC(O)CC(=O)*; dDab = NCC[C@@H](N)C(=O)O; Dab = NCC[CH](N)C(=O)O; Orn = NCCC[CH](N)C(=O)O; hSer = N[CH](CCO)C(=O)O; Dhb = C/C=C(\N)C(=O)O
Tests used:
[1] = test system: lymphocytes (peripheral blood mononuclear cells); assay: Lymphocyte proliferation in the absence of mitogens ([3H]-thymidine incorporation); type: cell-based, human; conditions: SR-E at concentrations of 5.72 μM and lower; FIG. 3
Method: (§1) Lipodepsipeptide for Immunosuppression Experiments: SR-E was purified as previously described in Bidwai, A. P., Bachmann, R. C. and Takemoto, J. Y., "Mechanism of action of Pseudomonas syringae phytotoxin syringomycin". Plant Physiol. 83:39-43 (1987). A stock solution (10 mg per ml) was prepared in RPMI1640 culture media, aliquoted and stored frozen at -20°.
(§2) Mitogen-induced lymphocyte proliferation: Peripheral blood mononuclear cells (MNC) (containing lymphocytes and monocytes) were separated by Ficoll-Hypaque density-gradient centrifugation using techniques well known in the art. Mitogen-induced lymphocyte proliferation was determined as previously described in Singh, V. K., "Stimulatory effect of corticotropin-releasing neurohormone on human lymphocyte proliferation and interleukin-2 receptor expression". J.Neuroimmunol.23.257-262 (1989). Briefly, MNC were cultured in triplicate in 96-well microtiter plates (Corning, Inc.). […]
(§3) [^3 H]-thymadine Incorporation: Cells were pulse-labeled for 4 hours with 0.5 μCi/well of [^3 H]methyl-thymidine (spec. act.=25 Ci/mmol from Amersham Intl.). […] To each vial, 2 ml of CytoScint fluid (ICN Biomedicals) was dispensed and the radioactivity determined using a liquid scintillation counter (Tri-Carb, Packard). The rate of [^3 H]-thymidine incorporation by MNC was calculated as counts per minute per 10 ^5 cells.

[2] = test system: pokeweed mitogen (PWM)-induced lymphocyte proliferation; assay: PWM-induced lymphocyte proliferation ([3H]-thymidine incorporation); type: cell-based, human
Method: as §1
(§4) Lymphocyte stimulation: Lymphocyte stimulation was performed with three different mitogens: phytohemagglutinin (PHA), pokeweed mitogen (PWM), and monoclonal antibody to CD3 (anti-CD3). […]
as §2, with “expression".” for “expression". J.Neuroimmunol.23.257-262 (1989). Briefly, MNC were cultured in triplicate in 96-well microtiter plates (Corning, Inc.).”
as §3, with “The rate of [^3 H]-thymidine incorporation by MNC was calculated as counts per minute per 10 ^5 cells.” left out

[3] = test system: monoclonal antibody to CD3 (anti-CD3)-induced lymphocyte proliferation; assay: anti-CD3-induced lymphocyte proliferation ([3H]-thymidine incorporation); type: cell-based, human
Method: as §1, §4
as §2, with “expression".” for “expression". J.Neuroimmunol.23.257-262 (1989). Briefly, MNC were cultured in triplicate in 96-well microtiter plates (Corning, Inc.).”
as §3, with “The rate of [^3 H]-thymidine incorporation by MNC was calculated as counts per minute per 10 ^5 cells.” left out

[4] = test system: clinical isolates (fungi); assay: Broth microdilution MIC, fungal isolates overall; type: cell-based; conditions: summary range over the fungi tested
Source text: Most of the fungal strains used in the tests were clinical isolates obtained from the University of Texas Health Science Center at San Antonio Fungus Testing Laboratory (San Antonio, Tex.) and the remaining isolates were ATCC strains.
Medium: Liquid RPMI 1640 (RPMI) medium with L-glutamine and without sodium bicarbonate (Sigma Chemical Co., R-6504; St. Louis, Mo.) buffered with 0.165M MOPS (34.54 g/liter) was used for in vitro antifungal tests. The medium was adjusted to pH 7.0 with 10M NaOH and filter sterilized.
Lipodepsipeptide Dilutions: All stock drug solution concentrations were at least 10-fold higher than the highest concentration tested. […]
Preparation of Inoculum Suspensions: On Sabouraud dextose agar (SDA; BBL, Becton and Dickinson and Co., Cockeysville, Md.) all isolates were subcultured at least twice before use to ensure purity and viability. […] The turbidity of each mixed suspension was measured at 530 nm and adjusted to 1×10^6 to 5×10^6 CFU/ml by the NCCLS spectrophotometric method described by National Committee for Clinical Laboratory Standards. […]
Aspergillus fumigatus and Mucor spp. were grown for 1 wk at 35° C. […] The stock suspensions of all filamentous fungi were measured at 530 nm and adjusted to 85-87% transmission. The concentration (1×10^6 to 5×10^6 CFU/ml) was determined by hemacytometer count or plate count on SDA. […]

Row | SMILES | effect on cell proliferation in the absence of mitogens ([3H]-thymidine incorporation) [1] | inhibition of PWM response ([2]; 1.14 μM) | suppression of PWM response ([2]; 5.72 μM, p=0.017) | significant inhibition of anti-CD3 response ([3]; 1.14 μM) | suppression of anti-CD3 response ([3]; 5.72 μM, p=0.02) | antifungal activity (overall range) [4]
1 | C/C=C1\NC(=O)[C@H](Cc2ccccc2)NC(=O)[C@H](CCCN=C(N)N)NC(=O)[C@@H](CCN)NC(=O)[C@H](CCN)NC(=O)[C@@H](CO)NC(=O)[C@@H](NC(=O)C[C@H](O)CCCCCCCCC)COC(=O)[C@H]([C@H](O)CCl)NC(=O)[C@H]([C@H](O)C(=O)O)NC1=O [SR-E, Syringomycin-E] (X1-S[dS][Dab][dDab]RF[Dhb][Asp(3S-OH)][Thr(4-Cl)]; ester 1-C) | no effect | significantly inhibited | 60% | not | 30% | 
2 | C/C=C1\NC(=O)C(C(C)O)NC(=O)C(CCCN)NC(=O)C(CCO)NC(=O)CNC(=O)C(CCN)NC(=O)C(NC(=O)CC(O)CCCCCCCCCCC)COC(=O)C(C(O)CCl)NC(=O)C(C(O)C(=O)O)NC1=O (stereo not drawn) [ST-B, Syringotoxin B] (X2-S[Dab]G[hSer][Orn]T[Dhb][ξAsp(3ξ-OH)][X3]; ester 1-C; configuration not given here) |  |  |  |  |  | 0.8 to 200 g/mL
